Experimental data: patent US6914045B2, “Glycopeptide antibiotics” (Wyeth Holdings Corporation, priority 2001, dated 2005)
Converted amounts (≈) assume the structure as drawn.

Experiments:
Assay in all cases: in vitro antibacterial evaluation, MIC by broth dilution
Type in all cases: cell-based
Streptococcus sp. = settings: broth dilution, 18 hours at 35° C.
Method in brief: (§1)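 Test organisms, which included recent clinical isolates resistant to methicillin, penicillin and/or vancomycin, were inoculated at 5×10^5 CFU/mL into Muller-Hinton II […] containing antibiotic at 64-0.06 μg/mL. Minimum inhibitory concentrations were then read as the lowest level inhibiting growth.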

Staphylococcus sp. = test system: Staphylococcus sp.
Method in brief: as §1

Escherichia coli = settings: 18 hours at 35° C.
Method in brief: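 Following National Committee for Clinical Laboratory Standards recommendations (M7-A2), susceptibility was measured by dilution in Muller-Hinton II […]. Bacteria were seeded at 5×10^5 CFU/mL against compound concentrations from 64 down to 0.06 μg/mL.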

Enterococcus sp. = settings: broth dilution, 18 hours at 35° C.
Method in brief: as §1

[1] = broth dilution, 18 hours at 35° C.
[2] = Enterococcus faecalis (ATCC 29212)
[3] = Enterococcus faecalis (GC 4553)
[4] = Enterococcus faecalis (GC 4554)

## CC(c1ccc(F)cc1)C1NC(=O)CNC(=O)C(CO)NC(=O)C(C(O)C2CNC(=N)N2C2OC(CO)C(O)C(O)C2O)NC(=O)C(C(O)C2CNC(=N)N2)NC(=O)C(Cc2ccc(OC3OC(CO)C(OC4OC(CO)C(O)C(O)C4O)C(O)C3O)cc2)NC1=O (stereo not drawn) [Example 261a, Cyclo[glycyl-4-fluoro-β-methylphenylalanyl-O-(4-O-hexopyranosylhexopyranosyl)tyrosyl-3-(2-iminoimidazolidin-4-yl)seryl-3-(3-hexopyranosyl-2-iminoimidazolidin-4-yl)serylseryl]]
Streptococcus sp.
  MIC Streptococcus agalactiae (GC 4564): >64 µg/mL
  MIC Streptococcus pyogenes (ID-3187): >64 µg/mL
Streptococcus sp.; strain GC 4564
  MIC Streptococcus agalactiae (GC 4564): >64 µg/mL
Streptococcus sp.; strain ID-3187
  MIC Streptococcus pyogenes (ID-3187): >64 µg/mL
Staphylococcus sp.; [1]
  MIC Coagulase Negative Staphylococcus (GC 4547): >64 µg/mL
  MIC Coagulase Negative Staphylococcus (GC 4548): >64 µg/mL
  MIC Coagulase Negative Staphylococcus (GC 4549): >64 µg/mL
  MIC Coagulase Negative Staphylococcus (GC 4551): >64 µg/mL
  MIC Staphylococcus aureus (ATCC 29213): >64 µg/mL
  MIC Staphylococcus aureus (GC 1131): >64 µg/mL
  MIC Staphylococcus aureus (GC 4541): >64 µg/mL
  MIC Staphylococcus aureus (GC 4542): >64 µg/mL
  MIC Staphylococcus aureus (GC 4544): >64 µg/mL
  MIC Staphylococcus aureus (GC 4545): >64 µg/mL
  MIC Staphylococcus aureus-SMITH (GC 4543): >64 µg/mL
  MIC Staphylococcus haemolyticus (GC 4546): >64 µg/mL
Staphylococcus sp.; broth dilution, 18 hours at 35° C.; strain ATCC 29213
  MIC Staphylococcus aureus (ATCC 29213): >64 µg/mL
Staphylococcus sp.; broth dilution, 18 hours at 35° C.; strain GC 1131
  MIC Staphylococcus aureus (GC 1131): >64 µg/mL
Staphylococcus sp.; broth dilution, 18 hours at 35° C.; strain GC 4541
  MIC Staphylococcus aureus (GC 4541): >64 µg/mL
Staphylococcus sp.; broth dilution, 18 hours at 35° C.; strain GC 4542
  MIC Staphylococcus aureus (GC 4542): >64 µg/mL
Staphylococcus sp.; broth dilution, 18 hours at 35° C.; strain GC 4544
  MIC Staphylococcus aureus (GC 4544): >64 µg/mL
Staphylococcus sp.; broth dilution, 18 hours at 35° C.; strain GC 4545
  MIC Staphylococcus aureus (GC 4545): >64 µg/mL
Escherichia coli; Escherichia coli (ATCC 25922)
  MIC Escherichia coli (ATCC 25922): >64 µg/mL
Escherichia coli; Escherichia coli (GC 4559)
  MIC Escherichia coli (GC 4559): >64 µg/mL
Escherichia coli; Escherichia coli (GC 4560)
  MIC Escherichia coli (GC 4560): >64 µg/mL
Enterococcus sp.; Enterococcus avium (GC 4558)
  MIC Enterococcus avium (GC 4558): >64 µg/mL
Enterococcus sp.; [2]
  MIC Enterococcus faecalis (ATCC 29212): >64 µg/mL
Enterococcus sp.; [3]
  MIC Enterococcus faecalis (GC 4553): >64 µg/mL
Enterococcus sp.; [4]
  MIC Enterococcus faecalis (GC 4554): >64 µg/mL
Enterococcus sp.; Enterococcus faecium (GC 2243)
  MIC Enterococcus faecium (GC 2243): >64 µg/mL
Enterococcus sp.; Enterococcus faecium (GC 4556)
  MIC Enterococcus faecium (GC 4556): >64 µg/mL
Enterococcus sp.; Enterococcus faecium (GC 4557)
  MIC Enterococcus faecium (GC 4557): >64 µg/mL
Enterococcus sp.
  MIC Enterococcus faecalis (GC 2242): >64 µg/mL
  MIC Enterococcus faecalis (GC 4552): >64 µg/mL
Enterococcus sp.; strain ATCC 29212
  MIC Enterococcus faecalis (ATCC 29212): >64 µg/mL
Enterococcus sp.; strain GC 2242
  MIC Enterococcus faecalis (GC 2242): >64 µg/mL
Enterococcus sp.; strain GC 2243
  MIC Enterococcus faecium (GC 2243): >64 µg/mL
Enterococcus sp.; strain GC 4552
  MIC Enterococcus faecalis (GC 4552): >64 µg/mL
Enterococcus sp.; strain GC 4553
  MIC Enterococcus faecalis (GC 4553): >64 µg/mL
Enterococcus sp.; strain GC 4554
  MIC Enterococcus faecalis (GC 4554): >64 µg/mL
Enterococcus sp.; strain GC 4556
  MIC Enterococcus faecium (GC 4556): >64 µg/mL
Enterococcus sp.; strain GC 4557
  MIC Enterococcus faecium (GC 4557): >64 µg/mL
Enterococcus sp.; strain GC 4558
  MIC Enterococcus avium (GC 4558): >64 µg/mL

## CC(c1ccccc1)C1NC(=O)CNC(=O)C(CO)NC(=O)C(C(O)C2CNC(=N)N2C2OC(CO)C(O)C(O)C2O)NC(=O)C(C(O)C2CNC(=N)N2)NC(=O)C(Cc2ccc(OC3OC(CO)C(OC4OC(COC(=O)OCc5ccccc5)C(O)C(O)C4O)C(O)C3O)cc2)NC1=O (stereo not shown) [Example 101a]
Streptococcus sp.; Streptococcus agalactiae (GC 4564)
  MIC Streptococcus agalactiae (GC 4564): 1 µg/mL (≈ 0.7 µM)
Streptococcus sp.; Streptococcus pneumoniae (GC 4565)
  MIC Streptococcus pneumoniae (GC 4565): <0.5 µg/mL
Streptococcus sp.; Streptococcus pyogenes (ID-3187)
  MIC Streptococcus pyogenes (ID-3187): 1 µg/mL (≈ 0.7 µM)
Streptococcus sp.; strain GC 4564
  MIC Streptococcus agalactiae (GC 4564): 1 µg/mL (≈ 0.7 µM)
Streptococcus sp.; strain GC 4565
  MIC Streptococcus pneumoniae (GC 4565): <0.5 µg/mL
Streptococcus sp.; strain ID-3187
  MIC Streptococcus pyogenes (ID-3187): 1 µg/mL (≈ 0.7 µM)
Staphylococcus sp.; [1]
  MIC Coagulase Negative Staphylococcus (GC 4547): 1 µg/mL (≈ 0.7 µM)
  MIC Coagulase Negative Staphylococcus (GC 4548): 1 µg/mL (≈ 0.7 µM)
  MIC Coagulase Negative Staphylococcus (GC 4549): 1 µg/mL (≈ 0.7 µM)
  MIC Coagulase Negative Staphylococcus (GC 4551): 2 µg/mL (≈ 1.4 µM)
  MIC Coagulase Negative Staphylococcus (ID-3941): 1 µg/mL (≈ 0.7 µM)
  MIC Staphylococcus aureus (ATCC 29213): 2 µg/mL (≈ 1.4 µM)
  MIC Staphylococcus aureus (GC 1131): 4 µg/mL (≈ 2.8 µM)
  MIC Staphylococcus aureus (GC 4541): 2 µg/mL (≈ 1.4 µM)
  MIC Staphylococcus aureus (GC 4542): 4 µg/mL (≈ 2.8 µM)
  MIC Staphylococcus aureus (GC 4544): 4 µg/mL (≈ 2.8 µM)
  MIC Staphylococcus aureus (GC 4545): 4 µg/mL (≈ 2.8 µM)
  MIC Staphylococcus aureus-SMITH (GC 4543): 8 µg/mL (≈ 5.6 µM)
  MIC Staphylococcus haemolyticus (GC 4546): 1 µg/mL (≈ 0.7 µM)
Staphylococcus sp.; broth dilution, 18 hours at 35° C.; strain GC 4546
  MIC Staphylococcus haemolyticus (GC 4546): 1 µg/mL (≈ 0.7 µM)
Staphylococcus sp.; broth dilution, 18 hours at 35° C.; strain GC 4547
  MIC Coagulase Negative Staphylococcus (GC 4547): 1 µg/mL (≈ 0.7 µM)
Staphylococcus sp.; broth dilution, 18 hours at 35° C.; strain GC 4548
  MIC Coagulase Negative Staphylococcus (GC 4548): 1 µg/mL (≈ 0.7 µM)
Staphylococcus sp.; broth dilution, 18 hours at 35° C.; strain GC 4549
  MIC Coagulase Negative Staphylococcus (GC 4549): 1 µg/mL (≈ 0.7 µM)
Staphylococcus sp.; broth dilution, 18 hours at 35° C.; strain GC 4551
  MIC Coagulase Negative Staphylococcus (GC 4551): 2 µg/mL (≈ 1.4 µM)
Staphylococcus sp.; broth dilution, 18 hours at 35° C.; strain ID-3941
  MIC Coagulase Negative Staphylococcus (ID-3941): 1 µg/mL (≈ 0.7 µM)
Staphylococcus sp.; broth dilution, 18 hours at 35° C.; strain SMITH GC 4543
  MIC Staphylococcus aureus-SMITH (GC 4543): 8 µg/mL (≈ 5.6 µM)
Staphylococcus sp.; strain ATCC 29213; broth dilution, 18 hours at 35° C.
  MIC Staphylococcus aureus (ATCC 29213): 2 µg/mL (≈ 1.4 µM)
Staphylococcus sp.; strain GC 1131; broth dilution, 18 hours at 35° C.
  MIC Staphylococcus aureus (GC 1131): 4 µg/mL (≈ 2.8 µM)
Staphylococcus sp.; strain GC 4541; broth dilution, 18 hours at 35° C.
  MIC Staphylococcus aureus (GC 4541): 2 µg/mL (≈ 1.4 µM)
Staphylococcus sp.; strain GC 4542; broth dilution, 18 hours at 35° C.
  MIC Staphylococcus aureus (GC 4542): 4 µg/mL (≈ 2.8 µM)
Staphylococcus sp.; strain GC 4544; broth dilution, 18 hours at 35° C.
  MIC Staphylococcus aureus (GC 4544): 4 µg/mL (≈ 2.8 µM)
Staphylococcus sp.; strain GC 4545; broth dilution, 18 hours at 35° C.
  MIC Staphylococcus aureus (GC 4545): 4 µg/mL (≈ 2.8 µM)
Escherichia coli; strain ATCC 25922
  MIC Escherichia coli (ATCC 25922): 64 µg/mL (≈ 44.8 µM)
Enterococcus sp.; Enterococcus avium (GC 4558)
  MIC Enterococcus avium (GC 4558): 16 µg/mL (≈ 11.2 µM)
Enterococcus sp.; [2]
  MIC Enterococcus faecalis (ATCC 29212): 16 µg/mL (≈ 11.2 µM)
Enterococcus sp.; Enterococcus faecalis (GC 2242)
  MIC Enterococcus faecalis (GC 2242): 8 µg/mL (≈ 5.6 µM)
Enterococcus sp.; Enterococcus faecalis (GC 4552)
  MIC Enterococcus faecalis (GC 4552): 16 µg/mL (≈ 11.2 µM)
Enterococcus sp.; [3]
  MIC Enterococcus faecalis (GC 4553): 16 µg/mL (≈ 11.2 µM)
Enterococcus sp.; [4]
  MIC Enterococcus faecalis (GC 4554): 16 µg/mL (≈ 11.2 µM)
Enterococcus sp.; Enterococcus faecium (GC 2243)
  MIC Enterococcus faecium (GC 2243): 16 µg/mL (≈ 11.2 µM)
Enterococcus sp.; Enterococcus faecium (GC 4556)
  MIC Enterococcus faecium (GC 4556): 16 µg/mL (≈ 11.2 µM)
Enterococcus sp.; Enterococcus faecium (GC 4557)
  MIC Enterococcus faecium (GC 4557): 2 µg/mL (≈ 1.4 µM)
Enterococcus sp.; strain ATCC 29212
  MIC Enterococcus faecalis (ATCC 29212): 16 µg/mL (≈ 11.2 µM)
Enterococcus sp.; strain GC 2242
  MIC Enterococcus faecalis (GC 2242): 8 µg/mL (≈ 5.6 µM)
Enterococcus sp.; strain GC 2243
  MIC Enterococcus faecium (GC 2243): 16 µg/mL (≈ 11.2 µM)
Enterococcus sp.; strain GC 4552
  MIC Enterococcus faecalis (GC 4552): 16 µg/mL (≈ 11.2 µM)
Enterococcus sp.; strain GC 4553
  MIC Enterococcus faecalis (GC 4553): 16 µg/mL (≈ 11.2 µM)
Enterococcus sp.; strain GC 4554
  MIC Enterococcus faecalis (GC 4554): 16 µg/mL (≈ 11.2 µM)
Enterococcus sp.; strain GC 4556
  MIC Enterococcus faecium (GC 4556): 16 µg/mL (≈ 11.2 µM)
Enterococcus sp.; strain GC 4557
  MIC Enterococcus faecium (GC 4557): 2 µg/mL (≈ 1.4 µM)
Enterococcus sp.; strain GC 4558
  MIC Enterococcus avium (GC 4558): 16 µg/mL (≈ 11.2 µM)
